Data: patent US11708348B2, “Protease inhibitors for treatment of coronavirus infections” (The Scripps Research Institute, priority 2021, dated 2023)

Tested on: SARS-CoV-2 strain USA-WA1/2020
Test: microbe, parasite or virus in culture
Format: cell-based
Conditions: Severe acute respiratory syndrome coronavirus 2, HeLa-ACE2, 24 h, HeLa-ACE2 cells, SARS-CoV-2 infection, 24 h; read-out: EC50, uM (Hela)

Structure (SMILES)	EC50
O=C(CC(C(F)(F)F)C(F)(F)F)C(=O)N1CC2(CC2)C[C@H]1C(=O)N[C@@H](C[C@@H]1CCNC1=O)C(=O)COC(F)(F)F [Compound 743, (S)-N-((S)-3-oxo-1-((S)-2-oxopyrrolidin-3-yl)-4-(trifluoromethoxy)butan-2-yl)-5-(5,5,5-trifluoro-2-oxo-4-(trifluoromethyl)pentanoyl)-5-azaspiro[2.4]heptane-6-carboxamide]	< 0.05 µM
O=C1NCC[C@H]1C[C@H](NC(=O)[C@@H]1CC2(CC2)CN1C(=O)[C@H](O)CC(C(F)(F)F)C(F)(F)F)C(=O)COC(F)(F)F [Compound 744, (S)-N-((S)-3-oxo-1-((S)-2-oxopyrrolidin-3-yl)-4-(trifluoromethoxy)butan-2-yl)-5-((R)-5,5,5-trifluoro-2-hydroxy-4-(trifluoromethyl)pentanoyl)-5-azaspiro[2.4]heptane-6-carboxamide]	< 0.05 µM
O=C1NCC[C@H]1C[C@H](NC(=O)[C@@H]1CC2(CC2)CN1C(=O)[C@@H](O)CC(C(F)(F)F)C(F)(F)F)C(=O)COC(F)(F)F [Compound 745, (S)-N-((S)-3-oxo-1-((S)-2-oxopyrrolidin-3-yl)-4-(trifluoromethoxy)butan-2-yl)-5-((S)-5,5,5-trifluoro-2-hydroxy-4-(trifluoromethyl)pentanoyl)-5-azaspiro[2.4]heptane-6-carboxamide]	< 0.05 µM
O=C(NC1CC1)C(=O)N1CC2(CC2)C[C@H]1C(=O)N[C@@H](C[C@@H]1CCNC1=O)C(=O)COC(F)(F)F [Compound 746, (S)-5-(2-(cyclopropylamino)-2-oxoacetyl)-N-((S)-3-oxo-1-((S)-2-oxopyrrolidin-3-yl)-4-(trifluoromethoxy)butan-2-yl)-5-azaspiro[2.4]heptane-6-carboxamide]	0.05 to 0.2 µM
CC(C)NC(=O)C(=O)N1CC2(CC2)C[C@H]1C(=O)N[C@@H](C[C@@H]1CCNC1=O)C(=O)COC(F)(F)F [Compound 747, (S)-5-(2-(isopropylamino)-2-oxoacetyl)-N-((S)-3-oxo-1-((S)-2-oxopyrrolidin-3-yl)-4-(trifluoromethoxy)butan-2-yl)-5-azaspiro[2.4]heptane-6-carboxamide]	< 0.05 µM
CC(C)C[C@H](C)C(=O)N1CC2(CC2)C[C@H]1C(=O)N[C@@H](C[C@@H]1CCNC1=O)C(=O)COC(F)(F)F [Compound 748, (S)-5-((S)-2,4-dimethylpentanoyl)-N-((S)-3-oxo-1-((S)-2-oxopyrrolidin-3-yl)-4-(trifluoromethoxy)butan-2-yl)-5-azaspiro[2.4]heptane-6-carboxamide]	0.05 to 0.2 µM
CCNC(=O)C(=O)N1CC2(CC2)C[C@H]1C(=O)N[C@@H](C[C@@H]1CCNC1=O)C(=O)COC(F)(F)F [Compound 749, (S)-5-(2-(ethylamino)-2-oxoacetyl)-N-((S)-3-oxo-1-((S)-2-oxopyrrolidin-3-yl)-4-(trifluoromethoxy)butan-2-yl)-5-azaspiro[2.4]heptane-6-carboxamide]	0.05 to 0.2 µM
CC(F)(F)CCC(=O)N1CC2(CC2)C[C@@H]1C(=O)N[C@H](C[C@@H]1CCNC1=O)C(=O)COC(F)(F)F [Compound 750, (R)-5-(4,4-difluoropentanoyl)-N-((R)-3-oxo-1-((S)-2-oxopyrrolidin-3-yl)-4-(trifluoromethoxy)butan-2-yl)-5-azaspiro[2.4]heptane-6-carboxamide]	0.05 to 0.2 µM
CC(C)C[C@@H](O)C(=O)N1CC(F)(F)C[C@H]1C(=O)N[C@@H](C[C@@H]1CCNC1=O)C(=O)COC(F)(F)F [Compound 751, (S)-4,4-difluoro-1-((R)-2-hydroxy-4-methylpentanoyl)-N-((S)-3-oxo-1-((S)-2-oxopyrrolidin-3-yl)-4-(trifluoromethoxy)butan-2-yl)pyrrolidine-2-carboxamide]	0.05 to 0.2 µM
CC(C)C[C@@H](C)C(=O)N1CC2(CC2)C[C@H]1C(=O)N[C@@H](C[C@@H]1CCNC1=O)C(=O)COC(F)(F)F [Compound 752, (S)-5-((R)-2,4-dimethylpentanoyl)-N-((S)-3-oxo-1-((S)-2-oxopyrrolidin-3-yl)-4-(trifluoromethoxy)butan-2-yl)-5-azaspiro[2.4]heptane-6-carboxamide]	< 0.05 µM
CC(C)C[C@@H](O)C(=O)N1C[C@H](C)C[C@H]1C(=O)N[C@@H](C[C@@H]1CCNC1=O)C(=O)COC(F)(F)F [Compound 753, (2S,4R)-1-((R)-2-hydroxy-4-methylpentanoyl)-4-methyl-N-((S)-3-oxo-1-((S)-2-oxopyrrolidin-3-yl)-4-(trifluoromethoxy)butan-2-yl)pyrrolidine-2-carboxamide]	< 0.05 µM
CC(C)(F)C[C@@H](O)C(=O)N1CC2(CC2)C[C@H]1C(=O)N[C@@H](C[C@@H]1CCNC1=O)C(=O)COC(F)(F)F [Compound 754, (S)-5-((R)-4-fluoro-2-hydroxy-4-methylpentanoyl)-N-((S)-3-oxo-1-((S)-2-oxopyrrolidin-3-yl)-4-(trifluoromethoxy)butan-2-yl)-5-azaspiro[2.4]heptane-6-carboxamide]	0.05 to 0.2 µM
[2H]C([2H])([2H])C([2H])([2H])CCCC(=O)N1CC2(CC2)C[C@H]1C(=O)N[C@@H](C[C@@H]1CCNC1=O)C(=O)COC(F)(F)F [Compound 755, (S)-5-(hexanoyl-5,5,6,6,6-d5)-N-((S)-3-oxo-1-((S)-2-oxopyrrolidin-3-yl)-4-(trifluoromethoxy)butan-2-yl)-5-azaspiro[2.4]heptane-6-carboxamide]	< 0.05 µM
CC(O)C(F)(F)C(=O)N1CC2(CC2)C[C@H]1C(=O)N[C@@H](C[C@@H]1CCNC1=O)C(=O)COC(F)(F)F (stereo partly drawn) [Compound 756, (6S)-5-(2,2-difluoro-3-hydroxybutanoyl)-N-((S)-3-oxo-1-((S)-2-oxopyrrolidin-3-yl)-4-(trifluoromethoxy)butan-2-yl)-5-azaspiro[2.4]heptane-6-carboxamide]	0.05 to 0.2 µM
[2H]C([2H])([2H])CCCCC(=O)N1CC2(CC2)C[C@H]1C(=O)N[C@@H](C[C@@H]1CCNC1=O)C(=O)COC(F)(F)F [Compound 757, (S)-5-(hexanoyl-6,6,6-d3)-N-((S)-3-oxo-l-((S)-2-oxopyrrolidin-3-yl)-4-(trifluoromethoxy)butan-2-yl)-5-azaspiro[2.4]heptane-6-carboxamide]	< 0.05 µM
CCC(OC)C(=O)N1CC2(CC2)C[C@H]1C(=O)N[C@@H](C[C@@H]1CCNC1=O)C(=O)COC(F)(F)F (stereo partly drawn) [Compound 758, (6S)-5-(2-methoxybutanoyl)-N-((S)-3-oxo-1-((S)-2-oxopyrrolidin-3-yl)-4-(trifluoromethoxy)butan-2-yl)-5-azaspiro[2.4]heptane-6-carboxamide]	0.2 to 0.5 µM
O=C1NCC[C@H]1C[C@H](NC(=O)[C@@H]1CC2(CC2)CN1C(=O)[C@H](O)C1CCC1)C(=O)COC(F)(F)F [Compound 760, (S)-5-((R)-2-cyclobutyl-2-hydroxyacetyl)-N-((S)-3-oxo-1-((S)-2-oxopyrrolidin-3-yl)-4-(trifluoromethoxy)butan-2-yl)-5-azaspiro[2.4]heptane-6-carboxamide]	0.05 to 0.2 µM
CC(C)C[C@@H](O)C(=O)N1C[C@H](c2ccccc2)C[C@H]1C(=O)N[C@@H](C[C@@H]1CCNC1=O)C(=O)COC(F)(F)F [Compound 761, (2S,4S)-1-((R)-2-hydroxy-4-methylpentanoyl)-N-((S)-3-oxo-1-((S)-2-oxopyrrolidin-3-yl)-4-(trifluoromethoxy)butan-2-yl)-4-phenylpyrrolidine-2-carboxamide]	< 0.05 µM
CC(C)(F)C(O)C(=O)N1CC2(CC2)C[C@H]1C(=O)N[C@@H](C[C@@H]1CCNC1=O)C(=O)COC(F)(F)F (stereo partly drawn) [Compound 762, (6S)-5-(3-fluoro-2-hydroxy-3-methylbutanoyl)-N-((S)-3-oxo-1-((S)-2-oxopyrrolidin-3-yl)-4-(trifluoromethoxy)butan-2-yl)-5-azaspiro[2.4]heptane-6-carboxamide]	0.05 to 0.2 µM
[2H]C([2H])([2H])CCCC(=O)N1CC2(CC2)C[C@H]1C(=O)N[C@@H](C[C@@H]1CCNC1=O)C(=O)COC(F)(F)F [Compound 763, (S)-N-((S)-3-oxo-1-((S)-2-oxopyrrolidin-3-yl)-4-(trifluoromethoxy)butan-2-yl)-5-(pentanoyl-5,5,5-d3)-5-azaspiro[2.4]heptane-6-carboxamide]	< 0.05 µM
[2H]C([2H])([2H])CCC(=O)N1CC2(CC2)C[C@H]1C(=O)N[C@@H](C[C@@H]1CCNC1=O)C(=O)COC(F)(F)F [Compound 764, (S)-5-(butanoyl-4,4,4-d3)-N-((S)-3-oxo-1-((S)-2-oxopyrrolidin-3-yl)-4-(trifluoromethoxy)butan-2-yl)-5-azaspiro[2.4]heptane-6-carboxamide]	0.05 to 0.2 µM
CC(C)C[C@H](NS(=O)(=O)c1ccc2c(ccn2C)c1)C(=O)N[C@@H](C[C@@H]1CCNC1=O)C(=O)COc1c(F)c(F)cc(F)c1F [Compound 765, (S)-4-methyl-2-((l-methyl-1H-indole)-5-sulfonamido)-N-((S)-3-oxo-1-((S)-2-oxopyrrolidin-3-yl)-4-(2,3,5,6-tetrafluorophenoxy)butan-2-yl)pentanamide]	< 0.05 µM
CCC[C@@H](O)C(=O)N1CC2(CC2)C[C@H]1C(=O)N[C@@H](C[C@@H]1CCNC1=O)C(=O)COC(F)(F)F [Compound 766, (S)-5-((R)-2-hydroxypentanoyl)-N-((S)-3-oxo-1-((S)-2-oxopyrrolidin-3-yl)-4-(trifluoromethoxy)butan-2-yl)-5-azaspiro[2.4]heptane-6-carboxamide]	0.05 to 0.2 µM
CC(C)C[C@@H](O)C(=O)N[C@@H](CC(C)C)C(=O)N[C@@H](C[C@@H]1CCNC1=O)C(=O)COC(F)(F)F [Compound 767, (R)-2-hydroxy-4-methyl-N-((S)-4-methyl-1-oxo-1-(((S)-3-oxo-1-((S)-2-oxopyrrolidin-3-yl)-4-(trifluoromethoxy)butan-2-yl)amino)pentan-2-yl)pentanamide]	0.2 to 0.5 µM
O=C(N[C@@H](C[C@@H]1CCNC1=O)C(=O)COC(F)(F)F)C1CCCCCN1C(=O)[C@@H](O)c1ccccc1 (stereo partly drawn) [Compound 768, l-((S)-2-hydroxy-2-phenylacetyl)-N-((S)-3-oxo-1-((S)-2-oxopyrrolidin-3-yl)-4-(trifluoromethoxy)butan-2-yl)azepane-2-carboxamide]	0.05 to 0.2 µM
